Assay type in all cases: cell-based
Experiment [1] deals with IL3000 T. congolense (drug sensitive) strain. Kind of experiment: In vitro Alamar Blue 72 h drug sensitivity assay for T. congolense. Conditions: Trypanosoma congolense; bloodstream form, 69 h + 3 h resazurin, 34° C.; classes A-C; read-out: IC50: I Org. Growth T. congolense IL-3000, 3 d. The method in brief:
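Bloodstream-form trypanosomes in HMI medium with 20% bovine serum, exposed to compound for 69 h at 34 °C, 5% CO2, then resazurin for 3 h more. Fluorescence read at 536/588 nm. IC50 from 11-point sigmoidal dose-response curves, at least three independent runs.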
A general note: Alamar Blue is a resazurin reagent that responds to reducing activity.

Experiment [2] concerns promastigote forms of L. major. Kind of experiment: Leishmania major promastigote growth inhibition assay (Alamar Blue). The settings on record: promastigotes, 44 hours + 4 hours Alamar Blue, read-out: IC50: I Org. promastigote Growth L. major, 2 d. The method in brief: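 Early-log L. major promastigotes (5,000/well) in Schneider's medium with 20% FBS incubated with compound 44 h at 28° C; drug solutions in DMSO were 10,000 or 1,000 ng/ml before dispensing. Alamar Blue added 4 h, fluorescence at 560/590 nm gives percent growth inhibition; IC50 determined for compounds inhibiting ≥50%.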

Experiment [3] has as its system TdTomato-modified T. cruzi (CL strain) in Vero cells. The experiment in a line: In vitro IC50 measurement of T. cruzi amastigote killing using TdTomato-modified T. cruzi (CL strain). The settings on record: Trypanosoma cruzi, 72 h, fluorescence, read-out: IC50: I Org. amastigote Growth T. cruzi CL TdTomato, 3 d. The method in brief: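 Vero cells were infected with tdTomato-expressing CL-strain parasites and dosed at 5 uM–5 nM. Fluorescence (ex 544/em 612 nm) was read at day 0 and again after 72 h at 37 °C, with day 0 values subtracted. IC50 and IC90 came from nonlinear regression.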

As a reminder, the IC50 is the concentration at which inhibition is half-maximal. Regarding `O=C(Nc1ccc2c(c1)B(O)OC21CCC1)c1cn(-c2cccnc2)nn1` [Example 8, N-(1-hydroxy-1H-spiro[benzo[c][1,2]oxaborole-3,1′-cyclobutan]-6-yl)-1-(pyridin-3-yl)-1H-1,2,3-triazole-4-carboxamide], the half-inhibitory concentration (IC50) in experiment [1] lay within 310 to 100000 nM; in experiment [2], 2510 to 20000 nM; in experiment [3] it was 1100 to 10000 nM.

For `Cc1c(C(=O)Nc2ccc3c(c2)B(O)OC32CCC2)nnn1-c1ccc(F)cc1` [Example 9, 1-(4-fluorophenyl)-N-(1-hydroxy-1H-spiro[benzo[c][1,2]oxaborole-3,1′-cyclobutan]-6-yl)-5-methyl-1H-1,2,3-triazole-4-carboxamide], the IC50 was in the range of 310 to 100000 nM in experiment [1], 600 to 2500 nM in experiment [2] and 1100 to 10000 nM in experiment [3].

Turning to `Cc1ccc(-n2cc(C(=O)Nc3ccc4c(c3)B(O)OC4)nn2)cc1` [Example 10, N-(1-hydroxy-1,3-dihydrobenzo[c][1,2]oxaborol-6-yl)-1-(p-tolyl)-1H-1,2,3-triazole-4-carboxamide], the IC50 was less than 100 nM in experiment [1], less than 600 nM in experiment [2] and less than 600 nM in experiment [3].

For the molecule `Cc1ccc(-n2nnc(C(=O)Nc3ccc4c(c3)B(O)OC4)c2C)cc1` [Example 11, N-(1-hydroxy-1,3-dihydrobenzo[c][1,2]oxaborol-6-yl)-5-methyl-1-(p-tolyl)-1H-1,2,3-triazole-4-carboxamide], the IC50 in experiment [1] is less than 100 nM; in experiment [2], less than 600 nM; in experiment [3], 1100 to 10000 nM.

`CC1OB(O)c2cc(NC(=O)c3cn(-c4cccnc4)nn3)ccc21` (stereo not drawn) [Example 12, N-(1-hydroxy-3-methyl-1,3-dihydrobenzo[c][1,2]oxaborol-6-yl)-1-(pyridin-3-yl)-1H-1,2,3-triazole-4-carboxamide]: the IC50 in experiment [1] is less than 100 nM; in experiment [2], 2510 to 20000 nM; in experiment [3], 600 to 1000 nM.

As to `Cc1ccc(-n2nnc(C(=O)Nc3ccc4c(c3)B(O)OC4C)c2C)cc1` (stereo not drawn) [Example 13, N-(1-hydroxy-3-methyl-1,3-dihydrobenzo[c][1,2]oxaborol-6-yl)-5-methyl-1-(p-tolyl)-1H-1,2,3-triazole-4-carboxamide], the values for the IC50 in experiment [1], in experiment [2] and in experiment [3] were 100 to 300 nM, 600 to 2500 nM and 600 to 1000 nM, respectively.

Consider `Cc1c(C(=O)Nc2ccc3c(c2)B(O)OC3C)nnn1-c1cccnc1` (stereo not drawn) [Example 14], for which the IC50 in experiment [1] was less than 100 nM; in experiment [2], 2510 to 20000 nM; in experiment [3], 1100 to 10000 nM.

Take `Cc1ccc(-n2cc(C(=O)Nc3ccc4c(c3)B(O)OC43CCC3)nn2)cc1` [Example 15]: the IC50 lay within 100 to 300 nM in experiment [1], 2510 to 20000 nM in experiment [2] and 1100 to 10000 nM in experiment [3].

With `Cc1ccc(-n2nnc(C(=O)Nc3ccc4c(c3)B(O)OC43CCC3)c2C)cc1` [Example 16, N-(1-hydroxy-1H-spiro[benzo[c][1,2]oxaborole-3,1′-cyclobutan]-6-yl)-5-methyl-1-(p-tolyl)-1H-1,2,3-triazole-4-carboxamide], the IC50 in experiment [1] was in the range of 310 to 100000 nM; in experiment [2], 600 to 2500 nM; in experiment [3], 1100 to 10000 nM.

For the molecule `Cc1c(C(=O)Nc2ccc3c(c2)B(O)OC32CCC2)nnn1-c1cccnc1` [Example 17, N-(1-hydroxy-1H-spiro[benzo[c][1,2]oxaborole-3,1′-cyclobutan]-6-yl)-5-methyl-1-(pyridin-3-yl)-1H-1,2,3-triazole-4-carboxamide], the IC50 was in the range of 310 to 100000 nM in experiment [1], 2510 to 20000 nM in experiment [2] and 1100 to 10000 nM in experiment [3].

As for `Cc1ccc(-n2cc(C(=O)Nc3ccc4c(c3)B(O)OC4C)nn2)cc1` (stereo not drawn) [Example 18, N-(1-hydroxy-3-methyl-1,3-dihydrobenzo[c][1,2]oxaborol-6-yl)-1-(p-tolyl)-1H-1,2,3-triazole-4-carboxamide], the IC50 in experiment [1] was less than 100 nM; in experiment [2], 600 to 2500 nM; in experiment [3] it was less than 600 nM.

The values above are taken from patent US11691992B2 (Anacor Pharmaceuticals, Inc., priority 2017, dated 2023).
